Laboratory results published in patent publication US8471021B2, “Sulfur containing heterocycle-fused naphthalene tetracarboxylic acid diimide derivatives, preparation method and use thereof” (Shanghai Institute Of Organic Chemistry, Chinese Academy Of …, priority 2009, dated 2013).

How the values were obtained:
[1] = Cyclic voltammetry in dichloromethane; assay type: physicochemical; settings: for LUMO energy level: calculated by equation (2), −(E1/2^red1+4.44); for half-wave potential E1/2^red1 / half-wave potential E1/2^red2: Bu4NPF6 0.1 M, 50 mV/s
Experimental: Cyclic voltammetry measurement was conducted by CHI610D electrochemical analyzer with computer control using a conventional tri-electrode system with platinum electrode as a working electrode, saturated calomel electrode (SCE) as a reference electrode, and platinum wire as a counter electrode. Samples were dissolved in freshly distilled dichloromethane to a molar concentration of 1×10^−3 M. Bu4NPF6 (0.1 M) was applied as a supporting electrolyte. The scan rate was 50 mV/s. Using saturated calomel as reference, taking the SCE energy level to be −4.44 eV below the vacuum level, the LUMO energies for the test material can be calculated by using the following equation for energy level: ELUMO=−(E1/2^red1+4.44) eV (2)

[2] = UV absorption spectrum in dichloromethane; assay type: physicochemical; settings: for optical band gap: calculated by equation (1), 1240 nm/λonset
Experimental: UV absorption spectrum measurement was conducted using U-3900 spectrometer. Samples were dissolved in dichloromethane to a molar concentration of 1×10^−6M, the scanning scope was 800-200 nm, and the optical band gap of the compound was calculated according to the following equation, Egap^opt=1240 nm/λonset (1)

[3] = Solubility in common organic solvents at room temperature; assay type: physicochemical; settings: for example chloroform, tetrahydrofuran
From the text: The 21 exemplary compounds (1˜21) described above for the five classes of sulfur containing heterocycle fused naphthalenetetracarboxylic acid diimide derivatives are soluble in regular organic solvents, such as chloroform, toluene, chlorobenzene, dichlorobenzene, and the like.

[4] = Cyclic voltammetry in dichloromethane; assay type: physicochemical; settings: calculated by equation (3), −(Ered^onset+4.4)

melting point	LUMO energy level [1]	half-wave potential E1/2^red1 ([1]; vs SCE, dichloromethane)	half-wave potential E1/2^red2 ([1]; vs SCE, dichloromethane)	optical band gap [2]	maximum UV absorption peak ([2]; dichloromethane, 1×10^−6M)	Compound	other results
330 to 332 °C						CCCCCCCCC(CCCCCC)CCn1c(=O)c2c3sc(=C(C#N)C#N)sc3c3c(=O)n(CCC(CCCCCC)CCCCCCCC)c(=O)c4c5sc(=C(C#N)C#N)sc5c(c1=O)c2c34 (stereo not shown) [Compound 7, N,N′-di(3-hexylundecyl)-[2,3-d:6,7-d′]-bi[2-(1,3-dithiacyclopenten-2-ylidene)-2-malononitrile]-naphthalene-1,4,5,8-tetracarboxylic acid diimide]	
	−4.23 eV	−0.21 V	−0.68 V	2.0 eV	around 581 nm	CCCCCCCCCCC(CCCCCCCC)Cn1c(=O)c2c3sc(=C(C#N)C(=O)OCC)sc3c3c(=O)n(CC(CCCCCCCC)CCCCCCCCCC)c(=O)c4c5sc(=C(C#N)C(=O)OCC)sc5c(c1=O)c2c34 (stereo not shown) [Compound 9, N,N′-di(2-octyldodecyl)-[2,3-d:6,7-d′]-bi[ethyl 2-(1,3-dithiacyclopenten-2-ylidene)-2-cyanoacetate]-naphthalene-1,4,5,8-tetracarboxylic acid diimide]	
						CCCCCCCCn1c(=O)c2c3sc(=C(C#N)C#N)sc3c3c(=O)n(CCCCCCCC)c(=O)c4c5sc(=C(C#N)C#N)sc5c(c1=O)c2c34 [Compound 8, N,N′-di(n-octyl)-[2,3-d:6,7-d′]-bi[2-(1,3-dithiacyclopenten-2-ylidene)-2-malononitrile]-naphthalene-1,4,5,8-tetracarboxylic acid diimide]	solubility [3]: relatively low solubility
317 to 319 °C						CCCCCCCCC(CCCCCC)Cn1c(=O)c2c3sc(=C(C#N)C#N)sc3c3c(=O)n(CC(CCCCCC)CCCCCCCC)c(=O)c4c5sc(=C(C#N)C#N)sc5c(c1=O)c2c34 (stereo not shown) [Compound 3, N,N′-di(2-hexyldecyl)-[2,3-d:6,7-d′]-bi[2-(1,3-dithiacyclopenten-2-ylidene)-2-malononitrile]-naphthalene-1,4,5,8-tetracarboxylic acid diimide]	
265 °C						CCCCCCCCCCC(CCCCCCCC)Cn1c(=O)c2c3sc(=C(C#N)C#N)sc3c3c(=O)n(CC(CCCCCCCC)CCCCCCCCCC)c(=O)c4c5sc(=C(C#N)C#N)sc5c(c1=O)c2c34 (stereo not shown) [Compound 2, N,N′-di(2-octyldodecyl)-[2,3-d:6,7-d′]-bi[2-(1,3-dithiacyclopenten-2-ylidene)-2-malononitrile]-naphthalene-1,4,5,8-tetracarboxylic acid diimide]	
		-0.81 V		1.8 eV	around 655 nm	CCCCCCCCCCCCC(CCCCCCCCCC)Cn1c(=O)c2c3sc(=C(C#N)c4ccccc4)sc3c3c(=O)n(CC(CCCCCCCCCC)CCCCCCCCCCCC)c(=O)c4c5sc(=C(C#N)c6ccccc6)sc5c(c1=O)c2c34 (stereo not shown) [Compound 12, N,N′-di(2-decyltetradecyl)-[2,3-d:6,7-d′]-bi[2-(1,3-dithiacyclopenten-2-ylidene)-2-phenylacetonitrile]-naphthalene-1,4,5,8-tetracarboxylic acid diimide]	LUMO energy level [4]: −4.17 eV; onset reduction potential Ered^onset ([1]; vs SCE, dichloromethane): −0.23 V
369 to 371 °C						CCCCCCC(CCCC)Cn1c(=O)c2c3sc(=C(C#N)C#N)sc3c3c(=O)n(CC(CCCC)CCCCCC)c(=O)c4c5sc(=C(C#N)C#N)sc5c(c1=O)c2c34 (stereo not shown) [Compound 5, N,N′-di(2-butyloctyl)-[2,3-d:6,7-d′]-bi[2-(1,3-dithiacyclopenten-2-ylidene)-2-malononitrile]-naphthalene-1,4,5,8-tetracarboxylic acid diimide]	
349 to 351 °C						CCCCCCC(CCCCCC)Cn1c(=O)c2c3sc(=C(C#N)C#N)sc3c3c(=O)n(CC(CCCCCC)CCCCCC)c(=O)c4c5sc(=C(C#N)C#N)sc5c(c1=O)c2c34 [Compound 4, N,N′-di(2-hexyloctyl)-[2,3-d:6,7-d′]-bi[2-(1,3-dithiacyclopenten-2-ylidene)-2-malononitrile]-naphthalene-1,4,5,8-tetracarboxylic acid diimide]	
240 °C	−4.35 eV	−0.09 V	−0.63 V	2.1 eV	around 573 nm	CCCCCCCCCCCCC(CCCCCCCCCC)Cn1c(=O)c2c3sc(=C(C#N)C#N)sc3c3c(=O)n(CC(CCCCCCCCCC)CCCCCCCCCCCC)c(=O)c4c5sc(=C(C#N)C#N)sc5c(c1=O)c2c34 (stereo not shown) [Compound 1, N,N′-di(2-decyltetradecyl)-[2,3-d:6,7-d′]-bi[2-(1,3-dithiacyclopenten-2-ylidene)-2-malononitrile]-naphthalene-1,4,5,8-tetracarboxylic acid diimide]	
	−4.63 eV	0.19 V	−0.40 V	2.2 eV	250˜318 nm	CCCCCCCCCCCCC(CCCCCCCCCC)CN1C(=O)c2c3sc(C#N)c(C#N)c3c3c4c(c5sc(C#N)c(C#N)c5c(c24)C1=O)C(=O)N(CC(CCCCCCCCCC)CCCCCCCCCCCC)C3=O (stereo not drawn) [Compound 18, N,N′-di(2-decyl-tetradecyl)-[2,3-d:6,7-d′]-bi[α,β-dicyanothiophene]-naphthalene-1,4,5,8-tetracarboxylic acid diimide]	end absorption peak ([2]; dichloromethane, 1×10^−6M): 545 nm
						CCCCC(CC)Cn1c(=O)c2c3sc(=C(C#N)C#N)sc3c3c(=O)n(CC(CC)CCCC)c(=O)c4c5sc(=C(C#N)C#N)sc5c(c1=O)c2c34 (stereo not shown) [Compound 6, N,N′-di(2-ethylhexyl)-[2,3-d:6,7-d′]-bi[2-(1,3-dithiacyclopenten-2-ylidene)-2-malononitrile]-naphthalene-1,4,5,8-tetracarboxylic acid diimide]	solubility [3]: relatively low solubility
	−4.28 eV	−0.16 V	−0.64 V	2.0 eV	around 550 nm	CCCCCCCCCCC(CCCCCCCC)Cn1c(=O)c2c3sc(C#N)c(C#N)sc3c3c(=O)n(CC(CCCCCCCC)CCCCCCCCCC)c(=O)c4c5sc(C#N)c(C#N)sc5c(c1=O)c2c34 (stereo not shown) [Compound 15, N,N′-di(2-octyl-dodecyl)-[2,3-d:6,7-d′]-bi[1,4-dithiacyclohexadiene-2,3-dicarbonitrile]-naphthalene-1,4,5,8-tetracarboxylic acid diimide]	
